Laboratory results from patent US20130216614A1, “IMMUNOGENIC COMPOSITIONS AND METHODS FOR TREATING NUEROLOGIC DISORDERS” (Glaxosmithkline Biologicals S.A., priority 2010, published 2013).

Test system: peripheral blood monocytes
Test: Ex vivo uptake of fluorescent Aβ42 by peripheral blood monocytes from adjuvanted mice
Format: in vivo, C57BL/6 mice
Conditions: 24 hrs after i.m. injection, FIG. 21; QS21 5 μg
Excerpt: To begin to examine the function of the increase of monocytes in the peripheral blood, we examined the capacity of those monocytes to uptake Aβ42 in a test tube. In order to measure that phagocytic activity, we have used fluorescent HiLyteFluo Aβ42 (Anaspec Inc).
We examined the capacity of monocytes to uptake Aβ42 in a test tube. In order to measure that phagocytic activity we have used fluorescent HiLyteFluo Aβ42 (Anaspec Inc).
Preparation of cells: Peripheral blood was drawn from C57BL/6 mice via cardiac puncture with lithium-heparin as anticoagulant, 24-Hour after injection of the adjuvants used herein. Red blood cell lysis was performed twice on pooled blood with Ammonium Chloride-based Buffer (Sigma, Steinheim, Germany) and cells were counted with the EasyCount™ System (Immunicon). […]
Samples were acquired on a flow cytometer (BD FACSCanto II) and data analyzed with the FACSDiva software (BD Biosciences).
Monocytes were identified by their Side/Forward scatter properties, excluding debris and gated as CD3-/CD45R/B220-/Ly-6G-/NK1.1-(Lineage-)/CD11b+ cells. Aβ uptake was assessed by reporting the percentage and Mean Fluorescence Intensity (GeoMean) of positive HiLyte fluor488 Aβ1-42 cells among gated monocytes.

QS21 [reference compound]
ex vivo Aβ uptake by mouse peripheral blood monocytes: does not promote
